Test results as given in patent EP3689361A1, “APPLICATION OF CRANBERRY OR EXTRACT THEREOF IN PREPARATION OF MEDICATIONS OR HEALTH-CARE FOOD FOR TREATING, DELAYING OR ALLEVIATING AGES-RELATED DISEASES” (BY-Health Co., Ltd., priority 2018, dated 2020).

Test system: AGEs production (BSA + Methylglyoxal)
Assay: Inhibition of AGEs production: co-incubation with BSA and MGO, fluorescence read-out
Format: biochemical
Settings: Compound concentration 1mg/mL
Procedure: Bovine serum albumin (BSA) can interact with Methylglyoxal (MGO) to produce AGEs. The compound to be tested was co-incubated with BSA and MGO, and the level of the AGEs production was determined through detecting change of fluorescence value in the system, to thereby evaluate whether or not the compound had inhibitory effect on the AGEs production. […]
With reference to the method of Test Example 1, the inhibitory effect of the AGEs inhibitory compositions of Examples 1-3 on AGEs production was examined. The test results were as follows: Table 13 Inhibitory effect of the AGEs inhibitory compositions on AGEs production

Cc1ncc(C[n+]2csc(CCO)c2C)c(N)n1 [Vitamin B1]
AGEs production inhibition rate % (Table 9, 7 samples): 87.3%

Cc1ncc(CO)c(CO)c1O.Cl [Vitamin B6]
AGEs production inhibition rate % (Table 9, 7 samples): 77.6%

N=C(N)NN [Aminoguanidine]
AGEs production inhibition rate % (Table 1, bilberry extracts with different anthocyanin contents): 101.1% | AGEs production inhibition rate % (Table 9, 7 samples): 101.1%

Cc1cc2nc3c(=O)[nH]c(=O)nc-3n(C[C@H](O)[C@H](O)[C@H](O)CO)c2cc1C [Vitamin B2]
AGEs production inhibition rate % (Table 9, 7 samples): 94.3%
